This note sets out measurements from patent US9475824B2, “Fused pyrimidines as inhibitors of p97 complex” (Cleave Biosciences, Inc., priority 2012, dated 2016).

A value given as a limit tells only on which side of the number the result lay.

In one assay the test system is K48-Ub, A549 cells. Kind of assay: A549 K48 cell intensity (immunofluorescence, high content imaging). In kind it is cell-based. The following applies: Homo sapiens, 6 hr compound incubation. As for the experimental part: Image-analysis is used to generate quantitative data from these assays that can be fit to a four-parameter sigmoid curve to derive IC50 values. Substrates of the ubiquitin-proteasome system, such as p53, are monitored after tumor cell lines are incubated with compounds for several hours. Accumulation of these proteins indicates an inhibition of proteasome-mediated degradation. Accumulation of lysine-48 chain linkage of poly-ubiquitin is also monitored by immunofluorescence as an indicator of ubiquitin-proteasome system inhibition. Both LC3 and SQSTM1 are mediators of autophagy. The localization and amounts of these proteins are monitored by immunofluorescence and report on the activity and inhibition of autophagy in response to p97 inhibition.
Day 1, Cell Plating to Establish Colonies of Cancer Cells • Cell Plating: • Seed cells ˜16 hrs prior to compound treatment • Plate 25 μL of A549 cells in every well of 384-well plate using multidrop. • Two (2) black plates for IF at 2500 cells/well • Let plate sit at room temp for 10-15 minutes prior to putting in incubator to allow cells to stick in middle of plate. • One (1) white plate for viability at 500 cells/well.

In the next assay the target is p97 (Homo sapiens, UniProt P55072). Kind of assay: P97 ATPase biochemical assay (ADP Glo). The following applies: 20 nM p97, 20 μM ATP, 37° C. 15 minutes. As for the experimental part:
The ATPase assay is performed according the following protocol: Purified enzyme (20 nM p97), substrate (20 μM ATP) and a dose titration of compounds are mixed in buffer (50 mM TRIS pH 7.5, 20 mM MgCl2, 0.02% TX-100, 1 mM DTT, 0.2% (v/v) glycerol) and incubated at 37° C. for 15 minutes. The reaction is terminated and the level of product generated is measured using the ADP Glo Assay Kit (Promega, Madison Wis.). Plotting product generated versus compound concentration and using a four-parameter fit model generates an IC50 value for each compounds.
The p97 assay is an initial screening assay used to determine inhibitory activity of the fused pyrimidine compounds of the invention against the p97 complex. As discussed above, inhibition of activity of the p97 proteosome complex can enable apoptosis and cause elimination of neoplastic cells (cancer cells). The method follows that of Christianson in Nat.
Assay Buffer is a mixture of 50 mM TRIS pH 7.5, 20 mM MgCl2, 0.02% TX-100, 1 mM DTT and 0.2% (v/v) Glycerol. […] The identification kit is an ADP glo kit (Promega): stop buffer, detection reagent.
0.5 μL compound serial diluted in DMSO (Final Conc. 10%)
2 μL ATP (Final Conc.=20 uM, diluted in assay buffer)
2.5 μL p97 (Final Conc.=20 nM, diluted in assay buffer)
Incubate at 37 degC for 15 min.
Add 5 μL of stop buffer, incubate at RT for 40 min.
Add 10 μL of detection reagent, incubate at RT for 30 min.
Read luminescence on Envision plate reader.
Plot normalized luminescence data against log-transformed concentration values and fit to a sigmoidal curve to determine IC50 values (done in Collaborative Drug Discovery software).

p97, sequence (P55072 whole entry): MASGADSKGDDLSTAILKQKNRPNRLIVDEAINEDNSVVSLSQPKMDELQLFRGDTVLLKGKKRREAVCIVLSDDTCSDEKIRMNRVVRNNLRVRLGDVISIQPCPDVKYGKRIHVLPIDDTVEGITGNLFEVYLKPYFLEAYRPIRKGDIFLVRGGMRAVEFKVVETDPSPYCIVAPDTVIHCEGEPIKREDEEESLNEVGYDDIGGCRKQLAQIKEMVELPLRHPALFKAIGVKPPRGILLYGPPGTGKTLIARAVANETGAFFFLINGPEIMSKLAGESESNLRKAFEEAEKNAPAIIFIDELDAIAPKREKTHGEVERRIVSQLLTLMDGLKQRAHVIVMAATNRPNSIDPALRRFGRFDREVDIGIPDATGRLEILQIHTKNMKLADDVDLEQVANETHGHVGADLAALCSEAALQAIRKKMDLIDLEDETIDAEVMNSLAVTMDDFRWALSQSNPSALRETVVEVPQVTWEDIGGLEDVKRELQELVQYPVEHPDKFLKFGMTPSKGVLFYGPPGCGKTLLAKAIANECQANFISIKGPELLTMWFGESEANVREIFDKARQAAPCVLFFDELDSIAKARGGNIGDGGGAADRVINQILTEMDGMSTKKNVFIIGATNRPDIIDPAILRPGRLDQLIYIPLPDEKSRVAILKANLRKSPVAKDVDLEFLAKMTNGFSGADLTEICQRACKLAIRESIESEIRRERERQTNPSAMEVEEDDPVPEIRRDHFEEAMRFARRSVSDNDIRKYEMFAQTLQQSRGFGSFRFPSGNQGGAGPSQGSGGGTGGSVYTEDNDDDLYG

As usually defined, the IC50 is the concentration that gives 50% inhibition. For `CCNC(=O)c1cccc2c1cc(C)n2-c1nc2c(c(NCc3ccccc3)n1)CCCC2` [compound 134, 1-[4-(benzylamino)-5,6,7,8-tetrahydroquinazolin-2-yl]-N-ethyl-2-methyl-1H-indole-4-carboxamide], the IC50 was less than 10000 nM in the assay on K48-Ub, A549 cells and less than 30 nM against p97.

On to `COc1nc2c(C(N)=O)cccc2n1-c1nc2c(c(NCc3ccccc3)n1)COCC2` [compound 94, 1-[4-(benzylamino)-5H,7H,8H-pyrano[4,3-d]pyrimidin-2-yl]-2-methoxy-1H-1,3-benzodiazole-4-carboxamide], for which the IC50 is less than 10000 nM with K48-Ub, A549 cells and less than 30 nM against p97.

Take `Cc1cc2c(CN)cccc2n1-c1nc2c(c(NCc3ccccc3)n1)CCCC2` [compound 124, 2-[4-(aminomethyl)-2-methyl-1H-indol-1-yl]-N-benzyl-5,6,7,8-tetrahydroquinazolin-4-amine]: the IC50 is less than 10000 nM with K48-Ub, A549 cells and less than 100 nM on p97.

Regarding `NC(=O)c1cccc2c1cc(CO)n2-c1nc2c(c(NCc3ccccc3)n1)COCC2` [compound 96, 1-[4-(benzylamino)-5H,7H,8H-pyrano[4,3-d]pyrimidin-2-yl]-2-(hydroxymethyl)-1H-indole-4-carboxamide], the IC50 in the assay with K48-Ub, A549 cells was less than 10000 nM; against p97, less than 100 nM.

On to `Cc1cc2ccccc2n1-c1nc2c(c(NCc3ccccc3)n1)CCCC2` [compound 21, N-benzyl-2-(2-methyl-1H-indol-1-yl)-5,6,7,8-tetrahydroquinazolin-4-amine], for which the IC50 in the assay with K48-Ub, A549 cells was less than 10000 nM; on p97, less than 300 nM.

For the compound `Cc1cc2c(C(=O)O)cccc2n1-c1nc2c(c(NCc3ccccc3)n1)COCC2` [compound 107, 1-[4-(benzylamino)-5H,7H,8H-pyrano[4,3-d]pyrimidin-2-yl]-2-methyl-1H-indole-4-carboxylic acid], the IC50 was less than 10000 nM in the assay with K48-Ub, A549 cells and less than 30 nM against p97.

Turning to `COc1nc2ccccc2n1-c1nc2c(c(NCc3ccccc3)n1)CCCC2` [compound 9, N-benzyl-2-(2-methoxy-1H-1,3-benzodiazol-1-yl)-5,6,7,8-tetrahydroquinazolin-4-amine], the IC50 with K48-Ub, A549 cells is less than 10000 nM; against p97, less than 100 nM.

For `NC(=O)c1cccc2c1cc(C1CC1)n2-c1nc2c(c(NCc3ccccc3)n1)CCCC2` [compound 130, 1-[4-(benzylamino)-5,6,7,8-tetrahydroquinazolin-2-yl]-2-cyclopropyl-1H-indole-4-carboxamide], the IC50 is less than 10000 nM in the assay with K48-Ub, A549 cells and less than 30 nM against p97.

Regarding `CCc1cc2c(C(N)=O)cccc2n1-c1nc2c(c(NCc3ccccc3)n1)CCCC2` [compound 112, 1-[4-(benzylamino)-5,6,7,8-tetrahydroquinazolin-2-yl]-2-ethyl-1H-indole-4-carboxamide], the IC50 in the assay with K48-Ub, A549 cells was less than 10000 nM; against p97, less than 100 nM.

Regarding `Cc1cc2c(C(=O)NCCN)cccc2n1-c1nc2c(c(NCc3ccccc3)n1)COCC2` [compound 105, N-(2-aminoethyl)-1-[4-(benzylamino)-5H,7H,8H-pyrano[4,3-d]pyrimidin-2-yl]-2-methyl-1H-indole-4-carboxamide], the IC50 is less than 10000 nM in the assay with K48-Ub, A549 cells and less than 1000 nM against p97.

On to `CCc1cc2c(C(N)=O)cccc2n1-c1nc2c(c(NCc3ccccc3)n1)COCC2` [compound 113, 1-[4-(benzylamino)-5H,7H,8H-pyrano[4,3-d]pyrimidin-2-yl]-2-ethyl-1H-indole-4-carboxamide], for which the IC50 with K48-Ub, A549 cells was less than 10000 nM; on p97, less than 300 nM.

Take `CNC(=O)c1cccc2c1cc(C)n2-c1nc2c(c(NCc3ccccc3)n1)COCC2` [compound 97, 1-[4-(benzylamino)-5H,7H,8H-pyrano[4,3-d]pyrimidin-2-yl]-N,2-dimethyl-1H-indole-4-carboxamide]: the IC50 in the assay with K48-Ub, A549 cells is less than 10000 nM; against p97 it was less than 100 nM.

As to `Cc1cc2c(C(N)=O)cccc2n1-c1nc2c(c(NCc3ccccc3F)n1)COCC2` [compound 123, 1-(4-{[(2-fluorophenyl)methyl]amino}-5H,7H,8H-pyrano[4,3-d]pyrimidin-2-yl)-2-methyl-1H-indole-4-carboxamide], the IC50 in the assay on K48-Ub, A549 cells is less than 10000 nM; on p97, less than 100 nM.

In the case of `COc1nc2c(C(N)=O)cccc2n1-c1nc2c(c(NCc3ccccc3)n1)CCCC2` [compound 114, 1-[4-(benzylamino)-5,6,7,8-tetrahydroquinazolin-2-yl]-2-methoxy-1H-1,3-benzodiazole-4-carboxamide], the IC50 in the assay on K48-Ub, A549 cells is less than 10000 nM; against p97 it was less than 30 nM.

Turning to `COc1cc2c(C(N)=O)cccc2n1-c1nc2c(c(NCc3ccccc3)n1)CCCC2` [compound 91, 1-[4-(benzylamino)-5,6,7,8-tetrahydroquinazolin-2-yl]-2-methoxy-1H-indole-4-carboxamide], the 50% inhibitory concentration (IC50) is less than 10000 nM in the assay on K48-Ub, A549 cells and less than 30 nM against p97.

In the assay on K48-Ub, A549 cells, `Cc1cc2c(CN)cccc2n1-c1nc2c(c(NCc3ccccc3)n1)COCC2` [compound 125, 2-[4-(aminomethyl)-2-methyl-1H-indol-1-yl]-N-benzyl-5H,7H,8H-pyrano[4,3-d]pyrimidin-4-amine] registered an IC50 of less than 10000 nM.

Turning to `NCc1cc2c(C(N)=O)cccc2n1-c1nc2c(c(NCc3ccccc3)n1)COCC2` [compound 86, 2-(aminomethyl)-1-[4-(benzylamino)-5H,7H,8H-pyrano[4,3-d]pyrimidin-2-yl]-1H-indole-4-carboxamide], the IC50 against p97 was less than 100 nM.

`Cc1cc2c(-c3nnn[nH]3)cccc2n1-c1nc2c(c(NCc3ccccc3)n1)COCC2` [compound 120, N-benzyl-2-[2-methyl-4-(1H-1,2,3,4-tetrazol-5-yl)-1H-indol-1-yl]-5H,7H,8H-pyrano[4,3-d]pyrimidin-4-amine] came in with an IC50 against p97 of less than 30 nM.

With `CCOc1cc2c(C(N)=O)cccc2n1-c1nc2c(c(NCc3ccccc3)n1)CCCC2` [compound 135, 1-[4-(benzylamino)-5,6,7,8-tetrahydroquinazolin-2-yl]-2-ethoxy-1H-indole-4-carboxamide], the IC50 against p97 was less than 30 nM.

Take `CC(N)c1cc2ccccc2n1-c1nc2c(c(NCc3ccccc3)n1)CCCC2` (stereo not shown) [compound 22, 2-[2-(1-aminoethyl)-1H-indol-1-yl]-N-benzyl-5,6,7,8-tetrahydroquinazolin-4-amine]: the 50% inhibitory concentration (IC50) against p97 was less than 1000 nM.

`COCCOc1cccc2c(NCc3ccccc3)nc(-n3c(CN)cc4ccccc43)nc12` [compound 23] returned an IC50 at p97 of less than 300 nM.

In the case of `CC(C)c1cc2c(C(N)=O)cccc2n1-c1nc2c(c(NCc3ccccc3)n1)COCC2` [compound 129, 1-[4-(benzylamino)-5H,7H,8H-pyrano[4,3-d]pyrimidin-2-yl]-2-(propan-2-yl)-1H-indole-4-carboxamide], the IC50 against p97 is less than 1000 nM.

With `Cc1cc2ccccc2n1-c1nc2c(c(NCc3ccccc3)n1)COC2` [compound 18, N-benzyl-2-(2-methyl-1H-indol-1-yl)-5H,7H-furo[3,4-d]pyrimidin-4-amine], the IC50 on p97 was less than 300 nM.

In the case of `Cc1cc2c(-c3nnn[nH]3)cccc2n1-c1nc2c(c(NCc3ccccc3)n1)CCCC2` [compound 121, N-benzyl-2-[2-methyl-4-(1H-1,2,3,4-tetrazol-5-yl)-1H-indol-1-yl]-5,6,7,8-tetrahydroquinazolin-4-amine], the IC50 at p97 was less than 30 nM.

With `COc1cccc2c(NCc3ccccc3)nc(-n3c(C)cc4ccccc43)nc12` [compound 8, N-benzyl-8-methoxy-2-(2-methyl-1H-indol-1-yl)quinazolin-4-amine], the IC50 against p97 was less than 100 nM.
